In patent publication US12383545B1, “Treatment of migraine” (priority 2018, dated 2025):

Experiments:
Bilirubin Total = experiment: Example 5: postbaseline hepatic laboratory parameter values of clinical interest, Bilirubin Total; assay type: in vivo, human; details: safety population
From the text: This study consisted of a 4-week screening and baseline period and a 12-week double-blind treatment period, which was followed by a 4-week safety follow-up period. Total study duration is 20-weeks.
To be randomized, eligible patients had to be 18 to 75 years of age (inclusive), have a history of migraine with or without aura for at least 1 year consistent with a diagnosis according to the International Classification of Headache Disorders criteria, 3rd edition, beta version, have experienced 4 to 14 migraine/probable migraine headache days and <15 headache days in the 28-day baseline period. Patients who had clinically significant hematologic, endocrine, cardiovascular, cerebrovascular, pulmonary, renal, hepatic, gastrointestinal, or neurologic disease were excluded from the study.
A total of 834 patients were randomized to double-blind treatment (ITT population), and 825 patients took at least 1 dose of double-blind IP (safety population). […] The primary efficacy variable was the change from baseline in mean monthly migraine/probable migraine headache days across the 12-week treatment period. The secondary efficacy variables were the change from baseline in mean monthly headache days across the 12-week treatment period, proportion of patients with at least a 50% reduction in mean monthly migraine/probable migraine headache days across the 12-week treatment period, and the change from baseline in mean monthly acute medication use days across the 12-week treatment period.

[1] = tested on: participants with episodic migraine; experiment: Study A: Activity Impairment in Migraine-Diary (AIM-D) PDA and PI domain scores; assay type: in vivo, human; details: for AIM-D Performance of Daily Activities domain score, LSMD vs. placebo (95% CI) / AIM-D Physical Impairment domain score, LSMD vs. placebo (95% CI) / AIM-D Performance of Daily Activities domain score, change from baseline, mean (SD) / AIM-D Physical Impairment domain score, LS mean change (SE): across 12 weeks; for AIM-D Performance of Daily Activities domain score, change from baseline, mean (SD) / AIM-D Physical Impairment domain score, LS mean change (SE) / AIM-D Performance of Daily Activities domain score, Month 1-3, mean (SD): mITT; for AIM-D Performance of Daily Activities domain score, Month 1-3, mean (SD): average across 12-week treatment period
From the text: The Activity in Migraine Diary (AIM-D) evaluates the impact of migraine on the performance of daily activities and physical impairment using an electronic daily diary. In particular, the AIM-D is comprised of two domains that evaluate Performance of Daily Activities (PDA) and Physical Impairment (PI). Assessed items for the AIM-D PDA domain include household chores, errands, leisure activities at home, social or leisure activities outside the home, strenuous physical activities, concentration, and thinking clearly. Assessed items for the AIM-D PI Domain include walking, moving one's body, bending forward, and moving one's head. Response options for each item range from “not difficult at all” to “I could not do it at all” on a 6-point rating scale. The AIM-D domain scores are scaled from 0-100, with higher scores indicating greater impact of migraine, and reductions from baseline in scores indicate improvement. See Cala et al., The Activity Impairment in Migraine-Diary (AIM-D): A Novel Migraine-Specific Patient-Reported Outcome Measure to Assess Functioning Based on Activity Impairment in Episodic and Chronic Migraine Patients, MTIS2018-005 (Sep. 5, 2018).
A secondary endpoint evaluated the change from baseline in mean monthly performance of daily activities domain score of the AIM-D across the 12-week treatment period. Another secondary endpoint evaluated the change from baseline in mean monthly physical impairment domain score of the AIM-D across the 12-week treatment period. The Activity Impairment in Migraine-Diary (AIM-D) is an 11-item daily diary that is comprised of two domains that evaluate Performance of Daily Activities (PDA; 7 items) and Physical Impairment (PI; 4 items). See Cala et al., “The Activity Impairment in Migraine Diary (AIM-D): A novel migraine-specific patient-reported outcome measure to assess functioning based on activity impairment in episodic and chronic migraine patients”, Cephalalgia 2018; 38:1-115, which is incorporated by reference herein in its entirety. In particular, the AIM-D assesses the impact of migraine on the performance of daily activities and physical impairment using a 6-point rating scale ranging from “Not difficult at all,” “A little difficult,” “Somewhat difficult,” “Very Difficult,” “Extremely Difficult”, and “I could not do it at all.” Items assessed for the AIM-D PDA domain included household chores, errands, leisure activities at home, social or leisure activities outside the home, strenuous physical activities, concentration, and thinking clearly. Items assessed for the AIM-D PI Domain included walking, moving body, bending forward, and moving head. Raw domain scores are recalled to a 0 to 100 scale, where higher scores indicate greater impact of migraine, and reductions from baseline in scores indicate improvement. The AIM-D was collected daily via an electronic diary with the same set of questions administered in headache (HA) and non-headache (NHA) versions. Monthly domain scores are calculated by summing the non-missing daily domain scores (HA and NHA days combined) and dividing the number of non-missing daily scores. The secondary endpoints for AIM-D PDA and PI domain scores were evaluated as change from baseline in mean monthly PDA or PI domain scores of the AIM-D across the 12-week treatment period.

C[C@@H]1[C@H](c2c(F)ccc(F)c2F)C[C@H](NC(=O)c2cnc3c(c2)C[C@@]2(C3)C(=O)Nc3ncccc32)C(=O)N1CC(F)(F)F [atogepant]
Participants with postbaseline Bilirubin Total (umol/L) >=1 * ULN, (%) (Bilirubin Total; Atogepant 10 mg QD (N = 93)): (3.3) % | Participants with postbaseline Bilirubin Total (umol/L) >=1 * ULN, n/N1 (Bilirubin Total; Atogepant 10 mg QD (N = 93)): 3/92 | Participants with postbaseline Bilirubin Total (umol/L) >=1.5 * ULN, (%) (Bilirubin Total; Atogepant 10 mg QD (N = 93)): (1.1) % | Participants with postbaseline Bilirubin Total (umol/L) >=1.5 * ULN, n/N1 (Bilirubin Total; Atogepant 10 mg QD (N = 93)): 1/92 | Participants with postbaseline Bilirubin Total (umol/L) >=2 * ULN, n/N1 (Bilirubin Total; Atogepant 10 mg QD (N = 93)): 0 | Participants with postbaseline Bilirubin Total (umol/L) >=3 * ULN, n/N1 (Bilirubin Total; Atogepant 10 mg QD (N = 93)): 0 | Participants with postbaseline Bilirubin Total (umol/L) >=5 * ULN, n/N1 (Bilirubin Total; Atogepant 10 mg QD (N = 93)): 0 | Participants with postbaseline Bilirubin Total (umol/L) >=10 * ULN, n/N1 (Bilirubin Total; Atogepant 10 mg QD (N = 93)): 0 | Participants with postbaseline Bilirubin Total (umol/L) >=20 * ULN, n/N1 (Bilirubin Total; Atogepant 10 mg QD (N = 93)): 0 | Participants with postbaseline Bilirubin Total (umol/L) >=1 * ULN, (%) (Bilirubin Total; Atogepant 30 mg BID (N = 86)): (3.6) % | Participants with postbaseline Bilirubin Total (umol/L) >=1 * ULN, n/N1 (Bilirubin Total; Atogepant 30 mg BID (N = 86)): 3/84 | Participants with postbaseline Bilirubin Total (umol/L) >=1.5 * ULN, (%) (Bilirubin Total; Atogepant 30 mg BID (N = 86)): (1.2) % | Participants with postbaseline Bilirubin Total (umol/L) >=1.5 * ULN, n/N1 (Bilirubin Total; Atogepant 30 mg BID (N = 86)): 1/84 | Participants with postbaseline Bilirubin Total (umol/L) >=2 * ULN, n/N1 (Bilirubin Total; Atogepant 30 mg BID (N = 86)): 0 | Participants with postbaseline Bilirubin Total (umol/L) >=3 * ULN, n/N1 (Bilirubin Total; Atogepant 30 mg BID (N = 86)): 0 | Participants with postbaseline Bilirubin Total (umol/L) >=5 * ULN, n/N1 (Bilirubin Total; Atogepant 30 mg BID (N = 86)): 0 | Participants with postbaseline Bilirubin Total (umol/L) >=10 * ULN, n/N1 (Bilirubin Total; Atogepant 30 mg BID (N = 86)): 0 | Participants with postbaseline Bilirubin Total (umol/L) >=20 * ULN, n/N1 (Bilirubin Total; Atogepant 30 mg BID (N = 86)): 0 | Participants with postbaseline Bilirubin Total (umol/L) >=1 * ULN, (%) (Bilirubin Total; Atogepant 30 mg QD (N = 183)): (8.4) % | Participants with postbaseline Bilirubin Total (umol/L) >=1 * ULN, n/N1 (Bilirubin Total; Atogepant 30 mg QD (N = 183)): 15/179 | Participants with postbaseline Bilirubin Total (umol/L) >=1.5 * ULN, (%) (Bilirubin Total; Atogepant 30 mg QD (N = 183)): (1.1) % | Participants with postbaseline Bilirubin Total (umol/L) >=1.5 * ULN, n/N1 (Bilirubin Total; Atogepant 30 mg QD (N = 183)): 2/179 | Participants with postbaseline Bilirubin Total (umol/L) >=2 * ULN, n/N1 (Bilirubin Total; Atogepant 30 mg QD (N = 183)): 0 | Participants with postbaseline Bilirubin Total (umol/L) >=3 * ULN, n/N1 (Bilirubin Total; Atogepant 30 mg QD (N = 183)): 0 | Participants with postbaseline Bilirubin Total (umol/L) >=5 * ULN, n/N1 (Bilirubin Total; Atogepant 30 mg QD (N = 183)): 0 | Participants with postbaseline Bilirubin Total (umol/L) >=10 * ULN, n/N1 (Bilirubin Total; Atogepant 30 mg QD (N = 183)): 0 | Participants with postbaseline Bilirubin Total (umol/L) >=20 * ULN, n/N1 (Bilirubin Total; Atogepant 30 mg QD (N = 183)): 0 | Participants with postbaseline Bilirubin Total (umol/L) >=1 * ULN, (%) (Bilirubin Total; Atogepant 60 mg BID (N = 91)): (1.1) % | Participants with postbaseline Bilirubin Total (umol/L) >=1 * ULN, n/N1 (Bilirubin Total; Atogepant 60 mg BID (N = 91)): 1/88 | Participants with postbaseline Bilirubin Total (umol/L) >=1.5 * ULN, n/N1 (Bilirubin Total; Atogepant 60 mg BID (N = 91)): 0 | Participants with postbaseline Bilirubin Total (umol/L) >=2 * ULN, n/N1 (Bilirubin Total; Atogepant 60 mg BID (N = 91)): 0 | Participants with postbaseline Bilirubin Total (umol/L) >=3 * ULN, n/N1 (Bilirubin Total; Atogepant 60 mg BID (N = 91)): 0 | Participants with postbaseline Bilirubin Total (umol/L) >=5 * ULN, n/N1 (Bilirubin Total; Atogepant 60 mg BID (N = 91)): 0 | Participants with postbaseline Bilirubin Total (umol/L) >=10 * ULN, n/N1 (Bilirubin Total; Atogepant 60 mg BID (N = 91)): 0 | Participants with postbaseline Bilirubin Total (umol/L) >=20 * ULN, n/N1 (Bilirubin Total; Atogepant 60 mg BID (N = 91)): 0 | Participants with postbaseline Bilirubin Total (umol/L) >=1 * ULN, (%) (Bilirubin Total; Atogepant 60 mg QD (N = 186)): (4.4) % | Participants with postbaseline Bilirubin Total (umol/L) >=1 * ULN, n/N1 (Bilirubin Total; Atogepant 60 mg QD (N = 186)): 8/181 | Participants with postbaseline Bilirubin Total (umol/L) >=1.5 * ULN, (%) (Bilirubin Total; Atogepant 60 mg QD (N = 186)): (1.1) % | Participants with postbaseline Bilirubin Total (umol/L) >=1.5 * ULN, n/N1 (Bilirubin Total; Atogepant 60 mg QD (N = 186)): 2/181 | Participants with postbaseline Bilirubin Total (umol/L) >=2 * ULN, n/N1 (Bilirubin Total; Atogepant 60 mg QD (N = 186)): 0 | Participants with postbaseline Bilirubin Total (umol/L) >=3 * ULN, n/N1 (Bilirubin Total; Atogepant 60 mg QD (N = 186)): 0 | Participants with postbaseline Bilirubin Total (umol/L) >=5 * ULN, n/N1 (Bilirubin Total; Atogepant 60 mg QD (N = 186)): 0 | Participants with postbaseline Bilirubin Total (umol/L) >=10 * ULN, n/N1 (Bilirubin Total; Atogepant 60 mg QD (N = 186)): 0 | Participants with postbaseline Bilirubin Total (umol/L) >=20 * ULN, n/N1 (Bilirubin Total; Atogepant 60 mg QD (N = 186)): 0 | AIM-D Performance of Daily Activities domain score, LSMD vs. placebo (95% CI) ([1]; 10 mg QD): −1.19 | AIM-D Physical Impairment domain score, LSMD vs. placebo (95% CI) ([1]; 10 mg QD): −1.08 | AIM-D Performance of Daily Activities domain score, change from baseline, mean (SD) ([1]; 10 mg QD): −7.0 | AIM-D Physical Impairment domain score, LS mean change (SE) ([1]; 10 mg QD): −5.11 | AIM-D Performance of Daily Activities domain score, Month 1-3, mean (SD) ([1]; 10 mg QD): 8.6 | AIM-D Performance of Daily Activities domain score, LSMD vs. placebo (95% CI) ([1]; 30 mg QD): −2.54 | AIM-D Physical Impairment domain score, LSMD vs. placebo (95% CI) ([1]; 30 mg QD): −1.99 | AIM-D Performance of Daily Activities domain score, change from baseline, mean (SD) ([1]; 30 mg QD): −8.9 | AIM-D Physical Impairment domain score, LS mean change (SE) ([1]; 30 mg QD): −6.02 | AIM-D Performance of Daily Activities domain score, Month 1-3, mean (SD) ([1]; 30 mg QD): 8.0 | AIM-D Performance of Daily Activities domain score, LSMD vs. placebo (95% CI) ([1]; 60 mg QD): −3.32 | AIM-D Physical Impairment domain score, LSMD vs. placebo (95% CI) ([1]; 60 mg QD): −2.46 | AIM-D Performance of Daily Activities domain score, change from baseline, mean (SD) ([1]; 60 mg QD): −9.2 | AIM-D Physical Impairment domain score, LS mean change (SE) ([1]; 60 mg QD): −6.49 | AIM-D Performance of Daily Activities domain score, Month 1-3, mean (SD) ([1]; 60 mg QD): 6.6
